Test results published in patent US7728012B2, “Carboxamide compounds and their use as calpain inhibitors” (Abbott GmbH & Co. KG, priority 2006, dated 2010).

Key:
Type in all cases: biochemical
[1] = biological target: T1, cathepsin L isolated from human liver (Homo sapiens, UniProt P07711); assay: Cathepsin L kinetic fluorescence enzyme inhibition assay; details: selectivity ratio versus calpain I
T1 construct: cathepsin L—isolated from human liver; purchased Calbiochem 219402; host or cells: human liver (tissue isolate)
Summary of the method: (§1)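 Inhibition is measured at room temperature in cysteine-containing MES buffer, pH 6.0, by continuous fluorescence at 460 nm. Cathepsin S (0.5 nM) uses 20 μM Z-Val-Val-Arg-AMC; L (1 nM) and B (0.25 nM) use Z-Phe-Arg-AMC at 2 and 100 μM respectively.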

[2] = biological target: T2, cathepsin K activated from recombinant human procathepsin K (Homo sapiens, UniProt P43235); assay: Cathepsin K kinetic fluorescence enzyme inhibition assay; details: selectivity ratio versus calpain I
T2 construct: purchased Calbiochem 342001; host or cells: E. coli
T2 sequence (P43235 115-329): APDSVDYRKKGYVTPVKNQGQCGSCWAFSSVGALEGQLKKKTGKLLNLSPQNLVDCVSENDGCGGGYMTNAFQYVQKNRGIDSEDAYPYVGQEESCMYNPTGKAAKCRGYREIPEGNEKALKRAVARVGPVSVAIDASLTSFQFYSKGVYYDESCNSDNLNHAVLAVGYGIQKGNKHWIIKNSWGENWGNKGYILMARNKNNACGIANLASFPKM

[3] = biological target: T3, cathepsin B isolated from human liver (Homo sapiens, UniProt P07858); assay: Cathepsin B kinetic fluorescence enzyme inhibition assay; details: selectivity ratio versus calpain I
T3 construct: cathepsin B—isolated from human liver; purchased Calbiochem 219362; host or cells: human liver (tissue isolate)
Summary of the method: as §1

[4] = biological target: T4, recombinant human cathepsin S (Homo sapiens, UniProt P25774); assay: Cathepsin S kinetic fluorescence enzyme inhibition assay; details: selectivity ratio versus calpain I
T4 construct: purchased Calbiochem 219343; host or cells: E. coli
Summary of the method: as §1

[5] = biological target: T5, calpain-I isolated from human erythrocytes (Homo sapiens, UniProt P07384); assay: Calpain I kinetic fluorescence enzyme inhibition assay; details: apparent Ki from IC50 by Cheng-Prussoff; average of 2 to 4 dose-effect plots
T5 construct: calpain-I—isolated from human erythrocytes; purchased Calbiochem 208713; host or cells: human erythrocytes (tissue isolate)
T5 sequence (P07384 1-714): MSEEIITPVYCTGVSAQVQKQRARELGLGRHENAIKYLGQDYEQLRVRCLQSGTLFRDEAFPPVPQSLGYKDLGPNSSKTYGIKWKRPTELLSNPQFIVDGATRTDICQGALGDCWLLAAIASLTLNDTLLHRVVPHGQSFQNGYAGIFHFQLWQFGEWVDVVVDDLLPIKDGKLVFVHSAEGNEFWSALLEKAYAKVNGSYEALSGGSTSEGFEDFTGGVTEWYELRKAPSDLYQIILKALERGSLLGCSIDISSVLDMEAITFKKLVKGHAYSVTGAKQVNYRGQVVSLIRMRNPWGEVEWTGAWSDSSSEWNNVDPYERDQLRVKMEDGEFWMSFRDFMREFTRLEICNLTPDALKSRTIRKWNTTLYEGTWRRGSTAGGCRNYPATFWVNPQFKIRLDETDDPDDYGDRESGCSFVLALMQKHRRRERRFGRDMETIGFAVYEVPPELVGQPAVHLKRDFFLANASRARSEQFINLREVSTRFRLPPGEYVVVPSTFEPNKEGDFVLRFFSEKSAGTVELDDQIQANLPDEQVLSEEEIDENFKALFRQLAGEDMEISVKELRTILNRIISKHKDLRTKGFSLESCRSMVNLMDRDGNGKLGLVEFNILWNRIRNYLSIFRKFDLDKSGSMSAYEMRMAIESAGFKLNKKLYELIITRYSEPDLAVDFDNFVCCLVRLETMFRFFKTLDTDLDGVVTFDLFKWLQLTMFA
T5 sequence (P04632 1-268 partner): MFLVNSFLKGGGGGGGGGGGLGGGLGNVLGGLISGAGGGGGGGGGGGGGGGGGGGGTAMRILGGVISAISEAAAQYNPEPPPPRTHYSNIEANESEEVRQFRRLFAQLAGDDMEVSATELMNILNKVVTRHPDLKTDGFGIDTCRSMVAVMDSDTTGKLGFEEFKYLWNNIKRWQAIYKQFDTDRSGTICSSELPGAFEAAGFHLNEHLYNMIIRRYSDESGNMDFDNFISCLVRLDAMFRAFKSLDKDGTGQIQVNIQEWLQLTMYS

T4 sequence (P25774 115-331): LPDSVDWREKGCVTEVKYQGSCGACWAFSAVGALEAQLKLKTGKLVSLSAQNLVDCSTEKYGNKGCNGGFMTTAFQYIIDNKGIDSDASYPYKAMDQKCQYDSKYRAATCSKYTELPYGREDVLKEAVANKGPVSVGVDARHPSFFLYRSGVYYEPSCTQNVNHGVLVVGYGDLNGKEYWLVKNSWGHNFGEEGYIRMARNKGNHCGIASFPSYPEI
T1 sequence (P07711 114-333): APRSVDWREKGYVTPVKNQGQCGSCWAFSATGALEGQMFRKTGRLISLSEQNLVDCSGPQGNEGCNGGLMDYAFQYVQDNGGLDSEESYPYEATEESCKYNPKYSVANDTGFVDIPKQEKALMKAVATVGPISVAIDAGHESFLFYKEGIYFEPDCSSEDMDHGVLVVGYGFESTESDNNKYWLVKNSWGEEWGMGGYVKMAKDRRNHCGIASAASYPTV

SMILES	Sel cat. L (Ki(cathepsin L)/Ki(calpain) ratio) [1]	Sel cat. K (Ki(cathepsin K)/Ki(calpain) ratio) [2]	Sel cat. B (Ki(cathepsin B)/Ki(calpain) ratio) [3]	Sel cat. S (Ki(cathepsin S)/Ki(calpain) ratio) [4]	Ki [5] [nM]
NC(=O)C(=O)C(Cc1ccccc1)NC(=O)c1cccnc1-n1ccc(-c2cccc(N3CCOCC3)c2)n1 (stereo not shown) [Example 58, N-(3-Amino-1-benzyl-2,3-dioxopropyl)-2-[3-(3-morpholin-4-ylphenyl)-1H-pyrazol-1-yl]nicotinamide]	++ (Ki(cathepsin L)/Ki(calpain) ratio of ≧50)	+ (10≦Ki(cathepsin K)/Ki(calpain)<30)	+ (10≦Ki(cathepsin B)/Ki(calpain)<30)	++ (Ki(cathepsin S)/Ki(calpain) ratio of ≧100)	≤ 40
NC(=O)C(=O)C(Cc1ccccc1)NC(=O)c1cccnc1-n1ccc(-c2ccc(C(F)(F)F)cc2)n1 (stereo not shown) [Example 60, N-(3-Amino-1-benzyl-2,3-dioxopropyl)-2-{3-[4-(trifluoromethyl)phenyl]-1H-pyrazol-1-yl}nicotinamide]	++ (Ki(cathepsin L)/Ki(calpain) ratio of ≧50)	+ (10≦Ki(cathepsin K)/Ki(calpain)<30)	+ (10≦Ki(cathepsin B)/Ki(calpain)<30)	+ (50≦Ki(cathepsin S)/Ki(calpain)<100)	40 to 100
NC(=O)C(=O)C(Cc1ccccc1)NC(=O)c1cccnc1-n1cc2c(n1)-c1ccccc1CC2 (stereo not shown) [Example 63, N-(3-Amino-1-benzyl-2,3-dioxopropyl)-2-(4,5-dihydro-2H-benzo[g]indazol-2-yl)nicotinamide]	++ (Ki(cathepsin L)/Ki(calpain) ratio of ≧50)	+ (10≦Ki(cathepsin K)/Ki(calpain)<30)	+ (10≦Ki(cathepsin B)/Ki(calpain)<30)	++ (Ki(cathepsin S)/Ki(calpain) ratio of ≧100)	≤ 40
NC(=O)C(=O)C(Cc1ccc(Cl)cc1)NC(=O)c1cccnc1-n1ccc(-c2ccc(F)cc2)n1 (stereo not shown) [Example 67, N-[3-Amino-1-(4-chlorobenzyl)-2,3-dioxopropyl]-2-[3-(4-fluorophenyl)-1H-pyrazol-1-yl]nicotinamide]	++ (Ki(cathepsin L)/Ki(calpain) ratio of ≧50)	+ (10≦Ki(cathepsin K)/Ki(calpain)<30)	+ (10≦Ki(cathepsin B)/Ki(calpain)<30)	++ (Ki(cathepsin S)/Ki(calpain) ratio of ≧100)	40 to 100
NC(=O)C(=O)C(Cc1ccccc1)NC(=O)c1cccnc1-n1ccc(-c2ccc(N3CCCC3)cc2)n1 (stereo not shown) [Example 69, N-(3-Amino-1-benzyl-2,3-dioxopropyl)-2-[3-(4-pyrrolidin-1-ylphenyl)-1H-pyrazol-1-yl]nicotinamide]	++ (Ki(cathepsin L)/Ki(calpain) ratio of ≧50)	+ (10≦Ki(cathepsin K)/Ki(calpain)<30)	+ (10≦Ki(cathepsin B)/Ki(calpain)<30)	++ (Ki(cathepsin S)/Ki(calpain) ratio of ≧100)	40 to 100
NC(=O)C(=O)C(Cc1ccccc1)NC(=O)c1cccnc1-n1ccc(-c2cccc(Cl)c2)n1 (stereo not shown) [Example 70, N-(3-Amino-1-benzyl-2,3-dioxopropyl)-2-[3-(3-chlorophenyl)-1H-pyrazol-1-yl]nicotinamide]	++ (Ki(cathepsin L)/Ki(calpain) ratio of ≧50)	+ (10≦Ki(cathepsin K)/Ki(calpain)<30)	+ (10≦Ki(cathepsin B)/Ki(calpain)<30)	++ (Ki(cathepsin S)/Ki(calpain) ratio of ≧100)	≤ 40
NC(=O)C(=O)C(Cc1ccccc1)NC(=O)c1cccnc1-n1ccc(-c2ccc(F)cc2Cl)n1 (stereo not shown) [Example 71, N-(3-Amino-1-benzyl-2,3-dioxopropyl)-2-[3-(2-chloro-4-fluorophenyl)-1H-pyrazol-1-yl]nicotinamide]	++ (Ki(cathepsin L)/Ki(calpain) ratio of ≧50)	++ (Ki(cathepsin K)/Ki(calpain) ratio of ≧30)	++ (Ki(cathepsin B)/Ki(calpain) ratio of ≧30)	++ (Ki(cathepsin S)/Ki(calpain) ratio of ≧100)	40 to 100
NC(=O)C(=O)C(Cc1ccccc1)NC(=O)c1cccnc1-n1ccc(-c2ccccc2C(F)(F)F)n1 (stereo not shown) [Example 72, N-(3-Amino-1-benzyl-2,3-dioxopropyl)-2-{3-[2-(trifluoromethyl)phenyl]-1H-pyrazol-1-yl}nicotinamide]	+ (30≦Ki(cathepsin L)/Ki(calpain)<50)	+ (10≦Ki(cathepsin K)/Ki(calpain)<30)	+ (10≦Ki(cathepsin B)/Ki(calpain)<30)	++ (Ki(cathepsin S)/Ki(calpain) ratio of ≧100)	40 to 100
NC(=O)C(=O)C(Cc1ccccc1)NC(=O)c1cccnc1-n1ccc(-c2ccccc2F)n1 (stereo not shown) [Example 76, N-(3-Amino-1-benzyl-2,3-dioxopropyl)-2-[3-(2-fluorophenyl)-1H-pyrazol-1-yl]nicotinamide]	++ (Ki(cathepsin L)/Ki(calpain) ratio of ≧50)	+ (10≦Ki(cathepsin K)/Ki(calpain)<30)	++ (Ki(cathepsin B)/Ki(calpain) ratio of ≧30)	++ (Ki(cathepsin S)/Ki(calpain) ratio of ≧100)	≤ 40
NC(=O)C(=O)C(Cc1ccccc1)NC(=O)c1cccnc1-n1ccc(-c2ccc(Cl)cc2Cl)n1 (stereo not shown) [Example 79, N-(3-Amino-1-benzyl-2,3-dioxopropyl)-2-[3-(2,4-dichlorophenyl)-1H-pyrazol-1-yl]nicotinamide]	++ (Ki(cathepsin L)/Ki(calpain) ratio of ≧50)	++ (Ki(cathepsin K)/Ki(calpain) ratio of ≧30)	++ (Ki(cathepsin B)/Ki(calpain) ratio of ≧30)	++ (Ki(cathepsin S)/Ki(calpain) ratio of ≧100)	40 to 100
COc1ccc(CC(NC(=O)c2cccnc2-n2ccc(-c3ccccc3)n2)C(=O)C(N)=O)cc1 (stereo not shown) [Example 80, N-[3-Amino-1-(4-methoxybenzyl)-2,3-dioxopropyl]-2-(3-phenyl-1H-pyrazol-1-yl)nicotinamide]	++ (Ki(cathepsin L)/Ki(calpain) ratio of ≧50)	+ (10≦Ki(cathepsin K)/Ki(calpain)<30)	++ (Ki(cathepsin B)/Ki(calpain) ratio of ≧30)	++ (Ki(cathepsin S)/Ki(calpain) ratio of ≧100)	40 to 100
